Measured values published in PubChem BioAssay AID330 (DTP/NCI, 2004).
Values joined by “and” are separate entries in the source; they are usually repeats but may differ in a detail not shown here. Equal values may be shown once. Inconclusive results and toxic doses are left out. The calls were made as follows: active = survival T/C of 150% or more; inactive = T/C below 125% in these data.

System: P388 leukemia ip, CD2F1 mice, survival T/C
Test: NCI In Vivo Anticancer Drug Screen. Data for tumor model P388 Leukemia (intraperitoneal) in CD2F1 (CDF1) mice
Settings: endpoint: median survival time, higher = longer survival
How it was run: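 Mice carrying the transplanted tumor received test compound or vehicle. Survival was recorded in each group, and the value is the treated-group measurement divided by that of the vehicle-treated control group.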

[1] = dose: 50.0 mg/kg/injection, schedule: Q01DX005 (ip), vehicle: saline
[2] = dose: 100.0 mg/kg/injection, schedule: Q01DX005 (ip), vehicle: saline

Measured: T/C

CN(C)CCN(N)CCN(C)C
inactive: [1] 94 % of control | [2] 105 % of control | dose: 200.0 mg/kg/injection, schedule: Q01DX005 (ip), vehicle: saline 100 % of control

CC(=O)OC1c2c(C)coc2C(=O)C23OC2CCC(C)C13C (centres undefined)
inactive: dose: 5.0 mg/kg/injection, schedule: Q01DX009 (ip), vehicle: saline with Tween-80 100 % of control | dose: 10.0 mg/kg/injection, schedule: Q01DX009 (ip), vehicle: saline with Tween-80 102 % of control | dose: 20.0 mg/kg/injection, schedule: Q01DX009 (ip), vehicle: saline with Tween-80 102 % of control | dose: 40.0 mg/kg/injection, schedule: Q01DX009 (ip), vehicle: saline with Tween-80 96 % of control

CCCCC[CH2][GeH]([CH2]CCCCC)[O][GeH]([CH2]CCCCC)[CH2]CCCCC
inactive: dose: 12.5 mg/kg/injection, schedule: Q01DX009 (ip), vehicle: saline 100 % of control and 97 % of control | dose: 25.0 mg/kg/injection, schedule: Q01DX009 (ip), vehicle: saline 104 % of control and 90 % of control | dose: 50.0 mg/kg/injection, schedule: Q01DX009 (ip), vehicle: saline 100 % of control and 101 % of control and 106 % of control | dose: 100.0 mg/kg/injection, schedule: Q01DX009 (ip), vehicle: saline 120 % of control and 97 % of control

Cc1c(N=Nc2ccc([N+](=O)[O-])cc2)nc2scc(-c3ccccc3)n12
inactive: dose: 25.0 mg/kg/injection, schedule: Q04DX002 (ip), vehicle: Klucel (hydroxypropylcellulose) (HPC) 121 % of control | dose: 100.0 mg/kg/injection, schedule: Q04DX002 (ip), vehicle: Klucel (hydroxypropylcellulose) (HPC) 86 % of control

C=C(Cl)C(=NC(C)(C)C)Nc1ccccc1Cl
inactive: dose: 6.25 mg/kg/injection, schedule: Q01DX005 (ip), vehicle: saline 100 % of control | dose: 12.5 mg/kg/injection, schedule: Q01DX005 (ip), vehicle: saline 117 % of control | dose: 25.0 mg/kg/injection, schedule: Q01DX005 (ip), vehicle: saline 124 % of control | [1] 114 % of control and 120 % of control | [2] 118 % of control

COC(=O)C1Cc2cncn2C(=O)N1 (centres undefined)
inactive: dose: 8.0 mg/kg/injection, schedule: Q01DX009 (ip), vehicle: water 108 % of control | dose: 16.0 mg/kg/injection, schedule: Q01DX009 (ip), vehicle: water 100 % of control | dose: 32.0 mg/kg/injection, schedule: Q01DX009 (ip), vehicle: water 103 % of control | dose: 64.0 mg/kg/injection, schedule: Q01DX009 (ip), vehicle: water 107 % of control

N#Cc1ccc([N+](=O)[O-])o1
inactive: dose: 12.5 mg/kg/injection, schedule: Q01DX009 (ip), vehicle: saline with Tween-80 100 % of control | dose: 25.0 mg/kg/injection, schedule: Q01DX009 (ip), vehicle: saline with Tween-80 90 % of control | dose: 50.0 mg/kg/injection, schedule: Q01DX009 (ip), vehicle: saline with Tween-80 95 % of control

CCN(CC)C(=S)SC(=S)N(CC)CC
inactive: dose: 100.0 mg/kg/injection, schedule: Q01DX009 (ip), vehicle: saline with Tween-80 108 % of control | dose: 200.0 mg/kg/injection, schedule: Q01DX009 (ip), vehicle: saline with Tween-80 104 % of control | dose: 400.0 mg/kg/injection, schedule: Q01DX009 (ip), vehicle: saline with Tween-80 103 % of control

CCCC(=O)NNC(=O)c1ccccn1
inactive: dose: 25.0 mg/kg/injection, schedule: Q01DX009 (ip), vehicle: saline sonified 90 % of control | dose: 50.0 mg/kg/injection, schedule: Q01DX009 (ip), vehicle: saline sonified 95 % of control | dose: 100.0 mg/kg/injection, schedule: Q01DX009 (ip), vehicle: saline sonified 100 % of control

C[C@@H]1CC[C@@]2(OC1)O[C@H]1C[C@H]3[C@@H]4CC(=O)C5=CC(=O)CC[C@]5(C)[C@H]4CC[C@]3(C)[C@H]1[C@@H]2C
inactive: dose: 2.25 mg/kg/injection, schedule: Q01DX005 (ip), vehicle: Klucel (hydroxypropylcellulose) (HPC) 101 % of control | dose: 4.5 mg/kg/injection, schedule: Q01DX005 (ip), vehicle: Klucel (hydroxypropylcellulose) (HPC) 100 % of control | dose: 9.0 mg/kg/injection, schedule: Q01DX005 (ip), vehicle: Klucel (hydroxypropylcellulose) (HPC) 97 % of control | dose: 18.0 mg/kg/injection, schedule: Q01DX005 (ip), vehicle: Klucel (hydroxypropylcellulose) (HPC) 89 % of control | dose: 36.0 mg/kg/injection, schedule: Q01DX005 (ip), vehicle: Klucel (hydroxypropylcellulose) (HPC) 88 % of control

CC(C)N[C@@H]1CCC[C@H]1O
inactive: dose: 100.0 mg/kg/injection, schedule: Q01DX001 (ip), vehicle: Klucel (hydroxypropylcellulose) (HPC) 105 % of control | dose: 200.0 mg/kg/injection, schedule: Q01DX001 (ip), vehicle: Klucel (hydroxypropylcellulose) (HPC) 113 % of control | dose: 400.0 mg/kg/injection, schedule: Q01DX001 (ip), vehicle: Klucel (hydroxypropylcellulose) (HPC) 115 % of control
